Test system: 941728-121-R-J1-PDC complex spheroid viability
Assay: Anticancer human tumor 941728-121-R-J1-PDC patient-derived lung adenocarcinoma cell line growth inhibition [RAS]
Conditions: for IC50: curve of first compound; for viability, T/C: stronger effect = lower value
Outline: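 Multi-cell-type spheroids: tumor cells plus HUVEC endothelial cells and mesenchymal stem cells. RAS-pathway inhibitors were combined with targeted agents, each dosed in half-log steps down from clinical Cmax, or from 10 microM when Cmax was unknown.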

[1] = second compound 0.00316 µM, first compound 0.0316 µM
[2] = second compound 0.00316 µM, first compound 0.1 µM
[3] = second compound 0.00316 µM, first compound 0.316 µM
[4] = second compound 0.00316 µM, first compound 1 µM
[5] = second compound 0.00316 µM, first compound 3.16 µM
[6] = second compound 0.00316 µM, first compound 10 µM
[7] = second compound 0.01 µM, first compound 0.0316 µM
[8] = second compound 0.01 µM, first compound 0.1 µM
[9] = second compound 0.01 µM, first compound 0.316 µM
[10] = second compound 0.01 µM, first compound 1 µM
[11] = second compound 0.01 µM, first compound 3.16 µM
[12] = second compound 0.01 µM, first compound 10 µM
[13] = second compound 0.0316 µM, first compound 0.0316 µM
[14] = second compound 0.0316 µM, first compound 0.1 µM
[15] = second compound 0.0316 µM, first compound 0.316 µM
[16] = second compound 0.0316 µM, first compound 1 µM
[17] = second compound 0.0316 µM, first compound 3.16 µM
[18] = second compound 0.0316 µM, first compound 10 µM
[19] = second compound 0.1 µM, first compound 0.0316 µM
[20] = second compound 0.1 µM, first compound 0.1 µM
[21] = second compound 0.1 µM, first compound 0.316 µM
[22] = second compound 0.1 µM, first compound 1 µM
[23] = second compound 0.1 µM, first compound 3.16 µM
[24] = second compound 0.1 µM, first compound 10 µM
[25] = second compound 0.316 µM, first compound 0.0316 µM
[26] = second compound 0.316 µM, first compound 0.1 µM
[27] = second compound 0.316 µM, first compound 0.316 µM
[28] = second compound 0.316 µM, first compound 1 µM
[29] = second compound 0.316 µM, first compound 3.16 µM
[30] = second compound 0.316 µM, first compound 10 µM
[31] = second compound 1 µM, first compound 0.0316 µM
[32] = second compound 1 µM, first compound 0.1 µM
[33] = second compound 1 µM, first compound 0.316 µM
[34] = second compound 1 µM, first compound 1 µM
[35] = second compound 1 µM, first compound 3.16 µM
[36] = second compound 1 µM, first compound 10 µM
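Note: spheroids exposed to compounds for 7 days before readout.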
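Throughout, for viability, T/C: 100% = DMSO vehicle control viability.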

CC(C)NCC(C(=O)N1CCN(c2ncnc3c2C(C)CC3O)CC1)c1ccc(Cl)cc1 (stereo unspecified) + C=CC(=O)N1CCN(c2nc(OCC3CCCN3C)nc3c(F)c(-c4nc(N)cc(C)c4C(F)(F)F)c(Cl)cc23)C(C)C1
IC50 (second compound 0.00316 µM): < 0.0316 µM | IC50 (second compound 0.01 µM): < 0.0316 µM | IC50 (second compound 0.0316 µM): < 0.0316 µM | IC50 (second compound 0.1 µM): < 0.0316 µM | IC50 (second compound 0.316 µM): < 0.0316 µM | IC50 (second compound 1 µM): < 0.0316 µM | viability, T/C [1]: 19.3% | viability, T/C [2]: 17.8% | viability, T/C [3]: 16.5% | viability, T/C [4]: 22.4% | viability, T/C [5]: 12.7% | viability, T/C [6]: 8.85% | viability, T/C [7]: 18% | viability, T/C [8]: 21.5% | viability, T/C [9]: 18.3% | viability, T/C [10]: 14.3% | viability, T/C [11]: 13.1% | viability, T/C [12]: 7.71% | viability, T/C [13]: 26.6% | viability, T/C [14]: 17.3% | viability, T/C [15]: 16.8% | viability, T/C [16]: 14.7% | viability, T/C [17]: 10.8% | viability, T/C [18]: 11.1% | viability, T/C [19]: 19.6% | viability, T/C [20]: 17.1% | viability, T/C [21]: 17.9% | viability, T/C [22]: 15% | viability, T/C [23]: 10.6% | viability, T/C [24]: 6.28% | viability, T/C [25]: 19.6% | viability, T/C [26]: 16.8% | viability, T/C [27]: 15.3% | viability, T/C [28]: 13.8% | viability, T/C [29]: 13.5% | viability, T/C [30]: 8.85% | viability, T/C [31]: 17.9% | viability, T/C [32]: 18.7% | viability, T/C [33]: 16.8% | viability, T/C [34]: 12% | viability, T/C [35]: 12.3% | viability, T/C [36]: 8.38%

CC(C)n1nc(-c2ccc3oc(N)nc3c2)c2c(N)ncnc21 + C=CC(=O)N1CCN(c2nc(OCC3CCCN3C)nc3c(F)c(-c4nc(N)cc(C)c4C(F)(F)F)c(Cl)cc23)C(C)C1
IC50 (second compound 0.00316 µM): < 0.000316 µM | IC50 (second compound 0.01 µM): < 0.000316 µM | IC50 (second compound 0.0316 µM): < 0.000316 µM | IC50 (second compound 0.1 µM): < 0.000316 µM | IC50 (second compound 0.316 µM): < 0.000316 µM | IC50 (second compound 1 µM): < 0.000316 µM | viability, T/C (second compound 0.00316 µM, first compound 0.000316 µM): 19.5% | viability, T/C (second compound 0.00316 µM, first compound 0.001 µM): 21.4% | viability, T/C (second compound 0.00316 µM, first compound 0.00316 µM): 19.4% | viability, T/C (second compound 0.00316 µM, first compound 0.01 µM): 14.4% | viability, T/C [1]: 11.6% | viability, T/C [2]: 9.02% | viability, T/C (second compound 0.01 µM, first compound 0.000316 µM): 19.6% | viability, T/C (second compound 0.01 µM, first compound 0.001 µM): 21.8% | viability, T/C (second compound 0.01 µM, first compound 0.00316 µM): 17.9% | viability, T/C (second compound 0.01 µM, first compound 0.01 µM): 14.4% | viability, T/C [7]: 10.7% | viability, T/C [8]: 6.76% | viability, T/C (second compound 0.0316 µM, first compound 0.000316 µM): 22.7% | viability, T/C (second compound 0.0316 µM, first compound 0.001 µM): 17.5% | viability, T/C (second compound 0.0316 µM, first compound 0.00316 µM): 19.2% | viability, T/C (second compound 0.0316 µM, first compound 0.01 µM): 14.4% | viability, T/C [13]: 10.2% | viability, T/C [14]: 7.17% | viability, T/C (second compound 0.1 µM, first compound 0.000316 µM): 22.1% | viability, T/C (second compound 0.1 µM, first compound 0.001 µM): 18.2% | viability, T/C (second compound 0.1 µM, first compound 0.00316 µM): 19.4% | viability, T/C (second compound 0.1 µM, first compound 0.01 µM): 11.9% | viability, T/C [19]: 10.1% | viability, T/C [20]: 7.39% | viability, T/C (second compound 0.316 µM, first compound 0.000316 µM): 19.4% | viability, T/C (second compound 0.316 µM, first compound 0.001 µM): 18% | viability, T/C (second compound 0.316 µM, first compound 0.00316 µM): 17.8% | viability, T/C (second compound 0.316 µM, first compound 0.01 µM): 14.7% | viability, T/C [25]: 9.18% | viability, T/C [26]: 8.16% | viability, T/C (second compound 1 µM, first compound 0.000316 µM): 19.5% | viability, T/C (second compound 1 µM, first compound 0.001 µM): 22.9% | viability, T/C (second compound 1 µM, first compound 0.00316 µM): 16.6% | viability, T/C (second compound 1 µM, first compound 0.01 µM): 13.4% | viability, T/C [31]: 11.6% | viability, T/C [32]: 8.02%

CC(Nc1ccc2c(c1)OCCn1cc(N3C(=O)OCC3C(F)F)nc1-2)C(N)=O (stereo unspecified) + C=CC(=O)N1CCN(c2nc(OCC3CCCN3C)nc3c(F)c(-c4nc(N)cc(C)c4C(F)(F)F)c(Cl)cc23)C(C)C1
IC50 (second compound 0.00316 µM): < 0.0316 µM | IC50 (second compound 0.01 µM): < 0.0316 µM | IC50 (second compound 0.0316 µM): < 0.0316 µM | IC50 (second compound 0.1 µM): < 0.0316 µM | IC50 (second compound 0.316 µM): < 0.0316 µM | IC50 (second compound 1 µM): < 0.0316 µM | viability, T/C [1]: 16.6% | viability, T/C [2]: 15.2% | viability, T/C [3]: 15.4% | viability, T/C [4]: 15.4% | viability, T/C [5]: 12.8% | viability, T/C [6]: 12% | viability, T/C [7]: 17.7% | viability, T/C [8]: 14.9% | viability, T/C [9]: 15.2% | viability, T/C [10]: 12.9% | viability, T/C [11]: 12.2% | viability, T/C [12]: 10.5% | viability, T/C [13]: 19.2% | viability, T/C [14]: 14.6% | viability, T/C [15]: 13.4% | viability, T/C [16]: 12.9% | viability, T/C [17]: 10.7% | viability, T/C [18]: 10.8% | viability, T/C [19]: 18.3% | viability, T/C [20]: 15.3% | viability, T/C [21]: 12.8% | viability, T/C [22]: 13.8% | viability, T/C [23]: 11.5% | viability, T/C [24]: 10.8% | viability, T/C [25]: 17.5% | viability, T/C [26]: 15.3% | viability, T/C [27]: 13.4% | viability, T/C [28]: 15.1% | viability, T/C [29]: 13.6% | viability, T/C [30]: 11.6% | viability, T/C [31]: 14.9% | viability, T/C [32]: 15.7% | viability, T/C [33]: 14.3% | viability, T/C [34]: 13.4% | viability, T/C [35]: 12.6% | viability, T/C [36]: 11.8%

Reference: PubChem BioAssay AID2060896 (Molecular Pharmacology Branch, DTP, NCI, 2025)
